Assay results published in US7700786B2, “Pyrazole derivative, intermediate therefor, processes for producing these, and herbicide containing these as active ingredient” (Sagami Chemical Research Center, priority 2001, dated 2010).

Experiments:
Assay type in all cases: in vivo
Echinochloa oryzicola = assay: Herbicidal efficacy test by pre-emergence treatment under submergence condition; conditions: 15th day after treatment, ratings of 1 to 5
Description: (§2) A 1/10,000-are pot was filled with paddy field soil, and, after plowing, seeds of Echinochloa oryzicola, Cyperus difformis, Monochoria vaginalis, Scirpus juncoides, Eleocharis acicularis and other annual broadleaf weeds such as Lindernia procumbens, Rotala indica and Elatine triandra were sown. Rice (oryza sativa) seedlings (cultiver “Koshihikari”) at a 2.5-leaf stage were transplanted and kept under a submergence condition. After one day, the wettable powder or emulsifiable concentrate of the compound of the present invention, prepared according to Preparation Example, was diluted and dropped on a water surface at a predetermined dose.

Abutilon theophrasti = assay: Herbicidal efficacy test by foliar treatment after germination under upland field condition; conditions: Dc: Digitaria ciliaris (table footnote; method names Abutilon theophrasti), dose 1 kg/ha, rated 1 to 5 on the 14th day after treatment
[1] = system: annual broadleaf weeds such as Lindernia procumbens, Rotala indica and Elatine triandra; assay: Herbicidal efficacy test by pre-emergence treatment under submergence condition; conditions: 15th day after treatment, ratings of 1 to 5
Description: as §2

Eleocharis acicularis = assay: as above; conditions: 15th day after treatment, ratings of 1 to 5; further: key: 1 shows no influence; 5 shows complete die
Description: as §2

Monochoria vaginalis = assay: as above; conditions: 15th day after treatment, ratings of 1 to 5; further: key: 1 shows no influence; 5 shows complete die
Description: as §2

Amaranthus viridis = assay: Herbicidal efficacy test by foliar treatment after germination under upland field condition; conditions: dose 1 kg/ha, rated 1 to 5 on the 14th day after treatment; further: key: 1 shows no influence; 5 shows complete die
Description: (§1) A vat having an area of 5×10 cm^2 and a depth of 5 cm was filled with upland field soil, and seeds of Chenopodium album, Echinochloa crus-galli, Amaranthus viridis and Abutilon theophrasti were sown thereon and covered with soil by a depth of 0.5 cm. Water was sprayed as required to grow them for 14 days.

Chenopodium album = assay: as above; conditions: dose 1 kg/ha, rated 1 to 5 on the 14th day after treatment; further: key: 1 shows no influence; 5 shows complete die
Description: as §1

Echinochloa crus-galli = assay: as above; conditions: dose 1 kg/ha, rated 1 to 5 on the 14th day after treatment
Description: as §1

Cyperus difformis = assay: Herbicidal efficacy test by pre-emergence treatment under submergence condition; conditions: 15th day after treatment, ratings of 1 to 5; further: key: 1 shows no influence; 5 shows complete die
Description: as §2

Scirpus juncoides = assay: as above; conditions: 15th day after treatment, ratings of 1 to 5
Description: as §2

In the case of `CNC(=S)n1nc(Oc2c(Cl)cc(C(F)(F)F)cc2Cl)cc1C` [Compound 3-15], the “Herbicidal efficacy Eo” value (Echinochloa oryzicola; dose 0.5 kg/ha) is reported as 5, the “Herbicidal efficacy Eo” value (Echinochloa oryzicola; dose 1 kg/ha) is reported as 5 and the “Herbicidal activity Dc” value (Abutilon theophrasti) is reported as 5. For the same compound, the “Herbicidal efficacy Blw” value ([1]; dose 0.5 kg/ha) was 5, the “Herbicidal efficacy Blw” value ([1]; dose 1 kg/ha) was 5 and the “Herbicidal efficacy Ea” value (Eleocharis acicularis; dose 0.5 kg/ha) was 5. The “Herbicidal efficacy Ea” value (Eleocharis acicularis; dose 1 kg/ha) was 5, the “Herbicidal efficacy Mv” value (Monochoria vaginalis; dose 0.5 kg/ha) was 5 and the “Herbicidal efficacy Mv” value (Monochoria vaginalis; dose 1 kg/ha) was 5. The “Herbicidal activity Av” value (Amaranthus viridis) was 5, the “Herbicidal activity Ca” value (Chenopodium album) was 5 and the “Herbicidal activity Ec” value (Echinochloa crus-galli) was 5. The “Herbicidal efficacy Cd” value (Cyperus difformis; dose 0.5 kg/ha) was 5, the “Herbicidal efficacy Cd” value (Cyperus difformis; dose 1 kg/ha) was 5 and the “Herbicidal efficacy Sj” value (Scirpus juncoides; dose 0.5 kg/ha) was 5. The “Herbicidal efficacy Sj” value (Scirpus juncoides; dose 1 kg/ha) was 5.

For `CCNC(=O)n1nc(Oc2ccc(C(F)(F)F)cc2[N+](=O)[O-])cc1C` [Compound 3-67], the “Herbicidal activity Dc” value (Abutilon theophrasti) was 5, the “Herbicidal activity Av” value (Amaranthus viridis) was 5 and the “Herbicidal activity Ca” value (Chenopodium album) was 5. The “Herbicidal activity Ec” value (Echinochloa crus-galli) was 4.9.

With `CCCNC(=O)n1nc(Oc2ccc(C(F)(F)F)cc2[N+](=O)[O-])cc1C` [Compound 3-82] the “Herbicidal activity Dc” value (Abutilon theophrasti) was 5, the “Herbicidal activity Av” value (Amaranthus viridis) was 5 and the “Herbicidal activity Ca” value (Chenopodium album) was 5. The “Herbicidal activity Ec” value (Echinochloa crus-galli) was 3.8.

For `Cc1cc(Oc2c(Cl)cc(C(F)(F)F)cc2Cl)nn1C(=O)NC(C)C` [Compound 3-89], the “Herbicidal efficacy Eo” value (Echinochloa oryzicola; dose 0.5 kg/ha) was 5, the “Herbicidal efficacy Eo” value (Echinochloa oryzicola; dose 1 kg/ha) was 5 and the “Herbicidal activity Dc” value (Abutilon theophrasti) was 5. For the same compound, the “Herbicidal efficacy Blw” value ([1]; dose 0.5 kg/ha) was 5, the “Herbicidal efficacy Blw” value ([1]; dose 1 kg/ha) was 5 and the “Herbicidal efficacy Ea” value (Eleocharis acicularis; dose 0.5 kg/ha) was 5. The “Herbicidal efficacy Ea” value (Eleocharis acicularis; dose 1 kg/ha) was 5, the “Herbicidal efficacy Mv” value (Monochoria vaginalis; dose 0.5 kg/ha) was 5 and the “Herbicidal efficacy Mv” value (Monochoria vaginalis; dose 1 kg/ha) was 5. For the same compound, the “Herbicidal activity Av” value (Amaranthus viridis) was 5, the “Herbicidal activity Ca” value (Chenopodium album) was 5 and the “Herbicidal activity Ec” value (Echinochloa crus-galli) was 5. For the same compound, the “Herbicidal efficacy Cd” value (Cyperus difformis; dose 0.5 kg/ha) was 5, the “Herbicidal efficacy Cd” value (Cyperus difformis; dose 1 kg/ha) was 5 and the “Herbicidal efficacy Sj” value (Scirpus juncoides; dose 0.5 kg/ha) was 5. The “Herbicidal efficacy Sj” value (Scirpus juncoides; dose 1 kg/ha) was 5.

`C=CCNC(=O)n1nc(Oc2c(Cl)cc(C(F)(F)F)cc2Cl)cc1C` [Compound 3-130] was tested, and the “Herbicidal efficacy Eo” value (Echinochloa oryzicola; dose 0.5 kg/ha) was 5, the “Herbicidal efficacy Eo” value (Echinochloa oryzicola; dose 1 kg/ha) was 5 and the “Herbicidal activity Dc” value (Abutilon theophrasti) was 5. The “Herbicidal efficacy Blw” value ([1]; dose 0.5 kg/ha) was 5, the “Herbicidal efficacy Blw” value ([1]; dose 1 kg/ha) was 5 and the “Herbicidal efficacy Ea” value (Eleocharis acicularis; dose 0.5 kg/ha) was 5. For the same compound, the “Herbicidal efficacy Ea” value (Eleocharis acicularis; dose 1 kg/ha) was 5, the “Herbicidal efficacy Mv” value (Monochoria vaginalis; dose 0.5 kg/ha) was 5 and the “Herbicidal efficacy Mv” value (Monochoria vaginalis; dose 1 kg/ha) was 5. The “Herbicidal activity Av” value (Amaranthus viridis) was 5, the “Herbicidal activity Ca” value (Chenopodium album) was 5 and the “Herbicidal activity Ec” value (Echinochloa crus-galli) was 5. The “Herbicidal efficacy Cd” value (Cyperus difformis; dose 0.5 kg/ha) was 5, the “Herbicidal efficacy Cd” value (Cyperus difformis; dose 1 kg/ha) was 5 and the “Herbicidal efficacy Sj” value (Scirpus juncoides; dose 0.5 kg/ha) was 5. For the same compound, the “Herbicidal efficacy Sj” value (Scirpus juncoides; dose 1 kg/ha) was 5.

For `CCONC(=O)n1nc(Oc2c(Cl)cc(C(F)(F)F)cc2Cl)cc1C` [Compound 3-158], the “Herbicidal efficacy Eo” value (Echinochloa oryzicola; dose 0.5 kg/ha) was 5, the “Herbicidal efficacy Eo” value (Echinochloa oryzicola; dose 1 kg/ha) was 5 and the “Herbicidal activity Dc” value (Abutilon theophrasti) was 5. The “Herbicidal efficacy Blw” value ([1]; dose 0.5 kg/ha) was 5, the “Herbicidal efficacy Blw” value ([1]; dose 1 kg/ha) was 5 and the “Herbicidal efficacy Ea” value (Eleocharis acicularis; dose 0.5 kg/ha) was 5. The “Herbicidal efficacy Ea” value (Eleocharis acicularis; dose 1 kg/ha) was 5, the “Herbicidal efficacy Mv” value (Monochoria vaginalis; dose 0.5 kg/ha) was 5 and the “Herbicidal efficacy Mv” value (Monochoria vaginalis; dose 1 kg/ha) was 5. The “Herbicidal activity Av” value (Amaranthus viridis) was 5, the “Herbicidal activity Ca” value (Chenopodium album) was 5 and the “Herbicidal activity Ec” value (Echinochloa crus-galli) was 5. For the same compound, the “Herbicidal efficacy Cd” value (Cyperus difformis; dose 0.5 kg/ha) was 5, the “Herbicidal efficacy Cd” value (Cyperus difformis; dose 1 kg/ha) was 5 and the “Herbicidal efficacy Sj” value (Scirpus juncoides; dose 0.5 kg/ha) was 5. The “Herbicidal efficacy Sj” value (Scirpus juncoides; dose 1 kg/ha) was 5.

In the case of `CCC(C)NC(=O)n1nc(Oc2ncc(C(F)(F)F)cc2Cl)cc1C` (stereo not shown) [Compound 4-30, N-s-butyl-3-(3-chloro-5-trifluoromethylpyridin-2-yloxy)-5-methylpyrazole-1-carboxamide], the “Herbicidal activity Dc” value (Abutilon theophrasti) is reported as 5, the “Herbicidal activity Av” value (Amaranthus viridis) is reported as 5 and the “Herbicidal activity Ca” value (Chenopodium album) is reported as 5. The “Herbicidal activity Ec” value (Echinochloa crus-galli) was 5.
